Columns and labels:
[1] = Hygroscopicity (water absorption, European Pharmacopoeia 7.0, chapter 01/2008:51100); assay type: physicochemical; settings: non-hygroscopic = less than 0.1% (w/w) of water absorption after 24 h exposure to 25° C./80% RH
Procedure: As used herein the term non-hygroscopic in relation to crystalline Elafibranor refers to less than 0.1% (w/w) of water absorption after 24 h exposure to 25° C./80% RH, determined according to European Pharmacopoeia 7.0, chapter 01/2008:51100. Water can be for example atmospheric water.

[2] = Thermodynamic (polymorphic) stability: conversion to other solid state forms, measured by XRPD; assay type: physicochemical; settings: after exposure to conditions of up to 25° C./100% RH for at least 1 month, as measured by XRPD; stable = less than 20% conversion
Procedure: The crystalline Elafibranor as described above in (a)-(f) may be anhydrous. The crystalline Elafibranor may be substantially free of other solid state forms of Elafibranor. […] In some embodiments, the conversion is 1%-20%, 1%-10% or 1%-5%.
Melting peak of crystalline form I of Elafibranor is in the range of about 154° C. and about 164° C., for example about 158° C. and about 160° C., preferably at about 159° C. as measured by DSC. […] Thermodynamic stability in relation to crystalline Elafibranor form I refers to less than 20%, less than 10%, less than 5%, less than 2%, less than 1%, or less than 0.5% conversion of crystalline Elafibranor form I to any other solid state form of Elafibranor after exposure of form I to conditions of up to 25° C./100% RH for at least 1 month, as measured by XRPD. In some embodiments, the conversion is 1%-20%, 1%-10% or 1%-5%.
Thermodynamic stability in relation to crystalline Elafibranor form II refers to less than 20%, 10%, 5%, 2%, 1%, or 0.5% conversion of crystalline Elafibranor form II to any other solid state form of Elafibranor after exposure of form II to conditions of up to 25° C./100% RH for at least 1 month, as measured by XRPD. In some embodiments, the conversion is 1%-20%, 1%-10% or 1%-5%.
Sample after being powdered in a mortar and pestle is applied directly on a silicon plate holder. […]

hygroscopicity [1]: non-hygroscopic
thermodynamic stability (conversion to any other solid state form of Elafibranor) [2]: thermodynamically stable
SMILES: CSc1ccc(C(=O)/C=C/c2cc(C)c(OC(C)(C)C(=O)O)c(C)c2)cc1 [form I, 2-(2,6-dimethyl-4-{3-[4-(methylsulfanyl)phenyl]-3-oxoprop-1-en-1-yl}phenoxy)-2-methylpropanoic acid]
